For orientation: IC50 means the point on the concentration scale where inhibition reaches its midpoint.

Structures are written as SMILES.

The values below come from US20250346585A1 (Alexion Pharmaceuticals, Inc., priority 2022, published 2025).

Human complement C1s enzyme, sequence (P09871 438-688 limits assumed): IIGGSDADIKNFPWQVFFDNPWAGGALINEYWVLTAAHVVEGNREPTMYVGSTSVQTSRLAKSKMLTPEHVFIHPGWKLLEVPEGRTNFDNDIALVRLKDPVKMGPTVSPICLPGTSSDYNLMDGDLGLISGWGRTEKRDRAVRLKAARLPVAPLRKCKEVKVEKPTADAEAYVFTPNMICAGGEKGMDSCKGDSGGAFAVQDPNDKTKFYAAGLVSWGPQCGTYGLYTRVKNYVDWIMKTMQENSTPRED
Human complement C1s enzyme, sequence (P09871 16-437 partner limits assumed): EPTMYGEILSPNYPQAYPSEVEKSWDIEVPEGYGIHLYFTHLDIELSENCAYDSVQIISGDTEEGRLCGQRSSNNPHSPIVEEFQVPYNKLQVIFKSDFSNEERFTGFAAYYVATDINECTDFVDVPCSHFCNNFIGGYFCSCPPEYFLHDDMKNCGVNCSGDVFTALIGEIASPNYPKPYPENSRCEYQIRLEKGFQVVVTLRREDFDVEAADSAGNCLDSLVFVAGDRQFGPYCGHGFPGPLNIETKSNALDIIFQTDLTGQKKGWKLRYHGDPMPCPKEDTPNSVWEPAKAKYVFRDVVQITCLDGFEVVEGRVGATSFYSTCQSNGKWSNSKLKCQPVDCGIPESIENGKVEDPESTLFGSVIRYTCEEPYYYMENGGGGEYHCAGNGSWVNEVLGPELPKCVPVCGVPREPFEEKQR

The test concerns the target Human complement C1s enzyme (Homo sapiens (Human), UniProt P09871). Put plainly: Human C1s enzyme assay. In kind it is biochemical. To be noted: Human C1s enzyme assay of Example 3; read-out: IC50 (Stars). The essentials: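 IC50 derived by nonlinear regression of rate versus concentration, with rate taken from A405 kinetics (30 s intervals, 30 min) after adding 100 μM each Z-L-Lys-SBzl and DTNB. C1s from human serum, 1.16 nM, exposed to compound for 5 min at RT beforehand; buffer 50 mM Tris, 1 M NaCl, pH 7.5.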
On to `COC[C@@]1(F)C[C@@H](C(=O)N[C@H](C)c2cc(C(=N)N)cs2)N(C(=O)CNC(=O)c2ccc3c(c2)-c2ccccc2C3(C)C)C1` [Compound 139, (2S,4R)—N—((R)-1-(4-carbamimidoylthiophen-2-yl)ethyl)-1-((9,9-dimethyl-9H-fluorene-3-carbonyl)glycyl)-4-fluoro-4-(methoxymethyl) pyrrolidine-2-carboxamide], for which the IC50 is below 100 nM. As to `Cn1ncc2cc(-c3ccc(C(=O)NCC(=O)N4CC5(C[C@H]4C(=O)NCc4cc(C(=N)N)cs4)OCCO5)cc3)ccc21` [Compound 140, (S)—N-((4-carbamimidoylthiophen-2-yl)methyl)-7-((4-(1-methyl-1H-indazol-5-yl)benzoyl)glycyl)-1,4-dioxa-7-azaspiro[4.4]nonane-8-carboxamide], the IC50 is below 100 nM. Consider `N=C(N)c1csc(CNC(=O)[C@@H]2CC3(CN2C(=O)CNC(=O)c2ccc(-c4ccccc4)c(F)c2)OCCO3)c1` [Compound 141, (S)—N-((4-carbamimidoylthiophen-2-yl)methyl)-7-((2-fluoro-[1,1′-biphenyl]-4-carbonyl)glycyl)-1,4-dioxa-7-azaspiro[4.4]nonane-8-carboxamide], for which the IC50 was below 100 nM. Consider `O=C(NCC(=O)N1CC2(C[C@H]1C(=O)NCc1cc(NC3=NCCCN3)cs1)OCCO2)c1ccc(Oc2ccc(F)cc2)cc1` [Compound 142, (S)-7-((4-(4-fluorophenoxy)benzoyl)glycyl)-N-((4-((1,4,5,6-tetrahydropyrimidin-2-yl)amino)thiophen-2-yl)methyl)-1,4-dioxa-7-azaspiro[4.4]nonane-8-carboxamide], for which the IC50 was above 1000 nM. In the case of `NS(=O)(=O)c1cncc(-c2csc(CNC(=O)[C@@H]3CC4(CN3C(=O)CNC(=O)c3ccc(Oc5ccc(F)cc5)cc3)OCCO4)c2)c1` [Compound 143, (S)-7-((4-(4-fluorophenoxy)benzoyl)glycyl)-N-((4-(5-sulfamoylpyridin-3-yl)thiophen-2-yl)methyl)-1,4-dioxa-7-azaspiro[4.4]nonane-8-carboxamide] it was above 1000 nM.

Regarding `N=C(N)c1csc(CNC(=O)[C@@H]2CC3(CN2C(=O)CNC(=O)c2ccc(-c4cc5ccccc5s4)cc2)OCCO3)c1` [Compound 145], the IC50 was below 100 nM. `N=C(N)c1csc(CNC(=O)[C@@H]2CC3(CN2C(=O)CNC(=O)c2cccc(-c4ccccc4)n2)OCCO3)c1` [Compound 146, (S)—N-((4-carbamimidoylthiophen-2-yl)methyl)-7-((6-phenylpicolinoyl)glycyl)-1,4-dioxa-7-azaspiro[4.4]nonane-8-carboxamide]: the IC50 is below 100 nM. Regarding `N=C(N)c1cc(CNC(=O)[C@@H]2CC3(CN2C(=O)CNC(=O)c2ccc(-c4ccccc4)cc2)OCCO3)cs1` [Compound 147, (S)-7-(([1,1′-biphenyl]-4-carbonyl)glycyl)-N-((5-carbamimidoylthiophen-3-yl)methyl)-1,4-dioxa-7-azaspiro[4.4]nonane-8-carboxamide], the IC50 was below 100 nM. As to `COC(=O)/N=C(/N)c1csc([C@@H](C)NC(=O)[C@@H]2CC3(CN2C(=O)CNC(=O)c2ccc4c(c2)-c2ccccc2C4(F)F)OCCO3)c1` [Compound 148, methyl ((E)-amino(5-((R)-1-((S)-7-((9,9-difluoro-9H-fluorene-3-carbonyl)glycyl)-1,4-dioxa-7-azaspiro[4.4]nonane-8-carboxamido)ethyl)thiophen-3-yl)methylene)carbamate], the IC50 was below 100 nM.

For `C[C@@H](NC(=O)[C@@H]1CC2(CN1C(=O)CNC(=O)c1ccc3c(c1)-c1ccccc1C3(F)F)OCCO2)c1cc(/C(N)=N\C(=O)Oc2ccccc2)cs1` [Compound 149, phenyl ((E)-amino(5-((R)-1-((S)-7-((9,9-difluoro-9H-fluorene-3-carbonyl)glycyl)-1,4-dioxa-7-azaspiro[4.4]nonane-8-carboxamido)ethyl)thiophen-3-yl)methylene)carbamate], the IC50 was below 100 nM. As for `C[C@@H](NC(=O)[C@@H]1CC2(CN1C(=O)CNC(=O)c1ccc3c(c1)-c1ccccc1C3(F)F)OCCO2)c1cc(-c2cn[nH]n2)cs1` [Compound 152, (S)—N—((R)-1-(4-(2H-1,2,3-triazol-4-yl)thiophen-2-yl)ethyl)-7-((9,9-difluoro-9H-fluorene-3-carbonyl)glycyl)-1,4-dioxa-7-azaspiro[4.4]nonane-8-carboxamide], the 50% inhibitory concentration (IC50) is above 1000 nM.

On to `C[C@@H](NC(=O)[C@@H]1C[C@](F)(CF)CN1C(=O)CNC(=O)c1ccc2c(c1)-c1ccccc1C2(C)C)c1cc(C(=N)N)cs1` [Compound 153, (2S,4R)—N—((R)-1-(4-carbamimidoylthiophen-2-yl)ethyl)-1-((9,9-dimethyl-9H-fluorene-3-carbonyl)glycyl)-4-fluoro-4-(fluoromethyl)pyrrolidine-2-carboxamide], for which the IC50 was below 100 nM. As to `C[C@@H](NC(=O)[C@@H]1C[C@](F)(CF)CN1C(=O)CNC(=O)c1ccc(C(F)(F)c2ccccc2)cc1)c1cc(C(=N)N)cs1` [Compound 154, (2S,4R)—N—((R)-1-(4-carbamimidoylthiophen-2-yl)ethyl)-1-((4-(difluoro(phenyl)methyl)benzoyl)glycyl)-4-fluoro-4-(fluoromethyl)pyrrolidine-2-carboxamide], the IC50 was below 100 nM. For the compound `N=C(N)c1cc(CNC(=O)[C@@H]2CC3(CN2C(=O)CNC(=O)c2ccc(-c4ccc(F)cc4F)cc2)OCCO3)cs1` [Compound 155, (S)-N-((5-carbamimidoylthiophen-3-yl)methyl)-7-((2′,4′-difluoro-[1,1′-biphenyl]-4-carbonyl)glycyl)-1,4-dioxa-7-azaspiro[4.4]nonane-8-carboxamide], the IC50 was below 100 nM. On to `CO[C@@H]1C[C@@H](C(=O)NCc2cc(-c3c[nH]c([N+](=O)[O-])n3)cs2)N(C(=O)CNC(=O)c2ccc(Oc3ccc(F)cc3)cc2)C1` [Compound 156, (2S,4R)-1-((4-(4-fluorophenoxy)benzoyl)glycyl)-4-methoxy-N-((4-(2-nitro-1H-imidazol-4-yl)thiophen-2-yl)methyl)pyrrolidine-2-carboxamide], for which the IC50 is above 1000 nM. In the case of `O=C(NCC(=O)N1CC2(C[C@H]1C(=O)NCc1cc(-c3ncc[nH]3)cs1)OCCO2)c1ccc(Oc2ccc(F)cc2)cc1` [Compound 157, (S)-N-((4-(1H-imidazol-2-yl)thiophen-2-yl)methyl)-7-((4-(4-fluorophenoxy)benzoyl)glycyl)-1,4-dioxa-7-azaspiro[4.4]nonane-8-carboxamide] it was above 1000 nM; in that of `C[C@@H](NC(=O)[C@@H]1CC2(CN1C(=O)CNC(=O)c1ccc(-c3ccc(F)cc3F)cc1)OCCO2)c1cc(C(=N)N)cs1` [Compound 158, (S)—N—((R)-1-(4-carbamimidoylthiophen-2-yl)ethyl)-7-((2′,4′-difluoro-[1,1′-biphenyl]-4-carbonyl)glycyl)-1,4-dioxa-7-azaspiro[4.4]nonane-8-carboxamide], below 100 nM; in that of `C[C@@H](NC(=O)[C@@H]1C[C@@H](OC(F)(F)F)CN1C(=O)CNC(=O)c1ccc2c(c1)-c1ccccc1C2(F)F)c1cc(C(=N)N)cs1` [Compound 159, (2S,4R)—N—((R)-1-(4-carbamimidoylthiophen-2-yl)ethyl)-1-((9,9-difluoro-9H-fluorene-3-carbonyl)glycyl)-4-(trifluoromethoxy)pyrrolidine-2-carboxamide], below 100 nM.
